Experiments:
Rattus norvegicus = species on record: Rattus norvegicus; test: Inhibition of contractions induced by K+ depolarization in rat dorsal aorta; type: functional
[1] = The compound was tested in vitro for its ability to displace [3H]PN-200-110 from Calcium Channel in rat brain membranes.; type: cell membranes
[2] = The compound was tested in vitro for its ability to displace [3H]PN-200-110 from rat brain membranes; type: tissue-based, Membrane

Row | SMILES | Kb (Rattus norvegicus) [nM] | Ki [1] [nM] | Ki [2] [nM]
1 | CCCCOP(=O)(CC(CCc1ccccc1)NS(=O)(=O)c1ccc(C)cc1)OCCCC (configuration not stated) | 348 | > 1000 | 
2 | CCCCNC(=O)OC(CCc1ccccc1)CP(=O)(OCCCC)OCCCC (configuration not stated) | 38 | > 1000 | 
3 | CCCCOP(=O)(CC(CCOc1ccccc1)CP(=O)(OCCCC)OCCCC)OCCCC [BELFOSDIL] | 0.5 | 23 | 
4 | CCCCOC(=O)NC(CCc1ccccc1)CP(=O)(OCCCC)OCCCC (configuration not stated) | 122 | > 1000 | 
5 | CCCCOP(=O)(CC(CCc1ccccc1)OC(=O)C(F)(F)F)OCCCC (configuration not stated) | > 1000 | > 1000 | 
6 | CCCCOP(=O)(CC(CCc1ccccc1)OC(=O)C(C)(C)C)OCCCC (configuration not stated) | 105 | > 1000 | 
7 | CCCCCC(=O)OC(Cc1ccccc1)CP(=O)(OCCCC)OCCCC (configuration not stated) | 211 | 560 | 
8 | CCCCOP(=O)(CC(CCc1ccccc1)OC(=O)c1ccccc1)OCCCC (configuration not stated) | 662 | > 1000 | 
9 | CCCCCC(=O)OC(CCc1ccccc1)CP(=O)(OCCCC)OCCCC (configuration not stated) | 6.6 | 51 | 
10 | CCCCOC(=O)OC(CCc1ccccc1)CP(=O)(OCCCC)OCCCC (configuration not stated) | 255 | > 1000 | 
11 | CCCCOP(=O)(CC(CCc1ccccc1)OS(C)(=O)=O)OCCCC (configuration not stated) | > 1000 |  | > 1000
12 | CCCCNC(=O)NC(CCc1ccccc1)CP(=O)(OCCCC)OCCCC (configuration not stated) | 129 | > 1000 | 
13 | CCCCOP(=O)(CC(CCc1ccccc1)OC(=O)C1CC1)OCCCC (configuration not stated) | 628 | > 1000 | 
14 | CCCCOP(=O)(CC(CCc1ccccc1)OP(=O)(OCCCC)OCCCC)OCCCC (configuration not stated) | 76 | 385 | 
15 | CCCCCC(=O)OC(CCCc1ccccc1)CP(=O)(OCCCC)OCCCC (configuration not stated) | > 1000 | > 1000 | 
16 | CCOP(=O)(Cc1ccc(-c2nc3ccccc3s2)cc1)OCC [FOSTEDIL] | > 1000 |  | 
17 | CCCCOP(=O)(CC(CCc1ccccc1)NP(=O)(OCC)OCC)OCCCC (configuration not stated) | 62 | > 1000 | 
18 | COC(=O)C1=C(C)NC(C)=C(C(=O)OC)C1c1ccccc1[N+](=O)[O-] [NIFEDIPINE] | 0.5 | 0.53 | 
19 | CCCCOP(=O)(CC(CCc1ccccc1)OC(C)=O)OCCCC (configuration not stated) | 25 | 55 | 

From ChEMBL document CHEMBL1126818, “Isosteric replacement in a series of -substituted monophosphonate calcium antagonists” (Bioorg Med Chem Lett, 1993)
